Laboratory results published in ChEMBL document CHEMBL1201862, “PubChem BioAssay data set” (2004).
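Values below derive from 48-hour exposures of cells grown in 96-well plates, with endpoints linearly interpolated between the two concentrations bracketing the appropriate inhibition level. The concentration for 50% growth inhibition is given as GI50.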 The source made the active and inactive calls. No stated cut-off is given here; in the data, active = GI50 up to about 1.1 µM and inactive = higher.

What was measured:
Assay in all cases: growth of human tumour cells (NCI), 48 h
UO-31 = test system: UO-31
SNB-19 = test system: SNB-19
HCC 2998 = test system: HCC 2998
NCI/ADR-RES = test system: NCI/ADR-RES
SK-MEL-2 = test system: SK-MEL-2
SF-539 = test system: SF-539
UACC-62 = test system: UACC-62
HOP-62 = test system: HOP-62
TK-10 = test system: TK-10
HCT-116 = test system: HCT-116
SF-295 = test system: SF-295
SK-OV-3 = test system: SK-OV-3
MDA-MB-435 = test system: MDA-MB-435
KM12 = test system: KM12
IGROV-1 = test system: IGROV-1
MOLT-4 = test system: MOLT-4
NCI-H23 = test system: NCI-H23
CAKI-1 = test system: CAKI-1
T47D = test system: T47D

SMILES	GI50 (UO-31)	GI50 (SNB-19)	GI50 (HCC 2998)	GI50 (NCI/ADR-RES)	GI50 (SK-MEL-2)	GI50 (SF-539)	GI50 (UACC-62)	GI50 (HOP-62)	GI50 (TK-10)	GI50 (HCT-116)	GI50 (SF-295)	GI50 (SK-OV-3)	GI50 (MDA-MB-435)	GI50 (KM12)	GI50 (IGROV-1)	GI50 (MOLT-4)	GI50 (NCI-H23)	GI50 (CAKI-1)	GI50 (T47D)
O=C1Cc2cc3ccccc3nc2-c2ccccc2N1	35.4 µM (inactive)	49.2 µM (inactive)	31.4 µM (inactive)	31.6 µM (inactive)	> 100 µM (inactive)	69.7 µM (inactive)	> 100 µM (inactive)	56 µM (inactive)	27.7 µM (inactive)	23.9 µM (inactive)	85.5 µM (inactive)	38 µM (inactive)	> 100 µM (inactive)	> 100 µM (inactive)	> 100 µM (inactive)	> 100 µM (inactive)	> 100 µM (inactive)	32.7 µM (inactive)	38.5 µM (inactive)
COc1ccc(OC)c2c(/C=C/c3ccc(N(C)C)cc3)ccnc12	4.67 µM (inactive)	> 10 µM (inactive)	> 10 µM (inactive)	> 10 µM (inactive)	> 10 µM (inactive)	2.77 µM (inactive)	3.01 µM (inactive)	> 10 µM (inactive)	5.58 µM (inactive)	3.53 µM (inactive)	> 10 µM (inactive)	> 10 µM (inactive)	5.21 µM (inactive)	> 10 µM (inactive)	> 10 µM (inactive)	6.68 µM (inactive)	> 10 µM (inactive)	> 10 µM (inactive)	> 10 µM (inactive)
N=C(N)NC(=N)Nc1ccccc1.Sc1nc2ccccc2s1	> 100 µM (inactive)	> 100 µM (inactive)	> 100 µM (inactive)	> 100 µM (inactive)	> 100 µM (inactive)	> 100 µM (inactive)	> 100 µM (inactive)	> 100 µM (inactive)	> 100 µM (inactive)	> 100 µM (inactive)	> 100 µM (inactive)	> 100 µM (inactive)	> 100 µM (inactive)	> 100 µM (inactive)	70.5 µM (inactive)		> 100 µM (inactive)	> 100 µM (inactive)	24.2 µM (inactive)
CNCCCn1c2ccccc2c2c3c(c(-c4ccsc4)cc21)C(=O)NC3=O	0.286 µM (active)	1.6 µM (inactive)	2.67 µM (inactive)	0.71 µM (active)	0.0181 µM (active)	0.0281 µM (active)	1.49 µM (inactive)	1.02 µM (active)	1.35 µM (inactive)	1.4 µM (inactive)	0.0953 µM (active)	1.19 µM (inactive)	1.12 µM (active)	0.0174 µM (active)	1.09 µM (active)	1.54 µM (inactive)	0.0822 µM (active)	0.519 µM (active)	2.09 µM (inactive)
COCC1OC(S(=O)(=O)c2ccccc2)C(O)C(OC)C1OC (stereo not drawn)	> 100 µM (inactive)	> 100 µM (inactive)	> 100 µM (inactive)	> 100 µM (inactive)	> 100 µM (inactive)	> 100 µM (inactive)	> 100 µM (inactive)	> 100 µM (inactive)	> 100 µM (inactive)	> 100 µM (inactive)	> 100 µM (inactive)	> 100 µM (inactive)	> 100 µM (inactive)	> 100 µM (inactive)	> 100 µM (inactive)	> 100 µM (inactive)	> 100 µM (inactive)	> 100 µM (inactive)	> 100 µM (inactive)
Cc1c(O)c(OC2OC(CO)C(O)C(O)C2O)cc2c1CC[C@@H]1C2(C)C(=O)C[C@]2(C)[C@@H]([C@@](C)(O)C3CCC(C)(C)O3)[C@H](O)C[C@@]12C (stereo partly drawn)	> 100 µM (inactive)	> 100 µM (inactive)	> 100 µM (inactive)	> 100 µM (inactive)	> 100 µM (inactive)	> 100 µM (inactive)	> 100 µM (inactive)	> 100 µM (inactive)	> 100 µM (inactive)	> 100 µM (inactive)	> 100 µM (inactive)	> 100 µM (inactive)	> 100 µM (inactive)	> 100 µM (inactive)	> 100 µM (inactive)	> 100 µM (inactive)	> 100 µM (inactive)	> 100 µM (inactive)	> 100 µM (inactive)
